Test results as given in patent US8435947B2, “Endothelial nitric oxide synthase antagonists and uses thereof for inhibiting oxygen toxicity” (Medical College of Georgia Research Institute, Inc., priority 2010, dated 2013).

Tests used:
[1] = target: T1, eNOS-β-actin association (Sus scrofa, UniProt Q6QAQ1); experiment: eNOS-β-actin co-immunoprecipitation in pulmonary artery endothelial cells; format: cell-based, pigs; conditions: peptide 20 μm, 3 h
T1 construct: endogenous in cells; host or cells: porcine pulmonary artery endothelial cells (PAEC)
Experimental: Transfection of Endothelial Cells with ABS Peptides Pulmonary artery endothelial cells were incubated with ABS peptides at 20 μm final concentration in MEM medium. […] Cells were then incubated for another 2 h before being used for co-immunoprecipitation and eNOS activity assays.
Determination of eNOS-β-Actin Association, NO Production, and Superoxide Formation in Endothelial Cells eNOS-β-Actin association was evaluated using co-immunoprecipitation.
This TAT tag is a novel method used to facilitate delivery of biologically active proteins or peptides into cells and tissues through the fusion of a protein transduction domain to the protein or peptide of interest (Gustafsson, A. B., et al. (2002) Circulation 106, 735-39). To confirm the efficiency of P326TAT and control peptide TAT to enter endothelial cells, FITC-labeled P326TAT and FITC-labeled control peptide TAT were used. […] Endothelial cells were incubated with P326TAT and control peptide TAT for 3 h, and then eNOS-β-actin association was evaluated by co-immunoprecipitation using anti-eNOS antibody.

[2] = system: pulmonary artery endothelial cells; experiment: NO production in endothelial cells (NOx, SIEVERS); format: cell-based, pigs; conditions: peptide 20 μm 3 h, ionomycin 2 μM
Experimental: After wild-type and eNOS mutant transfection, ionomycin (2 μm) was added to the cells. After 30 min of incubation, culture medium was collected and ethanol-precipitated to remove proteins. 50 μl of the reaction mix were loaded to the SIEVERS machine for NOx measurement according to standard manufacturer's instructions (Church, J. E., and Fulton, D. (2006) J. Biol. Chem. 281, 1477-88). In some experiments, N^G-nitro-1-arginine methyl ester (L-NAME), a specific eNOS inhibitor, was used to inhibit NO production. […] For superoxide assay, after incubation with ABS peptides, the spin trap CMH was added to the cells. Superoxide from cells was trapped for 1 h, and then cells were scraped and subjected to EPR spectroscopy as previously described (Sud, N., et al. (2008) Am. J. Physiol. Cell Physiol. 294, C1407-18). Protein contents in the cell lysates were determined by Lowry's method.
To measure NO production, endothelial cells were incubated with ABS peptides for 3 h. Then ionomycin (2 μM) was added to the cells. After an additional 30 min, culture medium was collected and ethanol-precipitated to remove proteins. 50 μl of the reaction mix were loaded to the SIEVERS machine for NOx measurement as described above. For superoxide assay, after incubation with ABS peptides, the spin trap CMH was added to the cells. […]

[3] = system: pulmonary artery endothelial cells; experiment: superoxide formation in endothelial cells (CMH spin trap, EPR); format: cell-based, pigs; conditions: endothelial cells, peptide 20 μm, versus control peptide TAT
Experimental: To measure NO production, endothelial cells were incubated with ABS peptides for 3 h. Then ionomycin (2 μM) was added to the cells. After an additional 30 min, culture medium was collected and ethanol-precipitated to remove proteins. 50 μl of the reaction mix were loaded to the SIEVERS machine for NOx measurement as described above. For superoxide assay, after incubation with ABS peptides, the spin trap CMH was added to the cells. Superoxide from cells was trapped for 1 h, and then cells were scraped and subjected to EPR spectroscopy.

[4] = system: eNOS-Hsp90 interaction; experiment: eNOS-Hsp90 co-immunoprecipitation in endothelial cells; format: cell-based, pigs; conditions: versus control peptide TAT-transfected cells
Experimental: To rule out the possibility that the effect of P326TAT on eNOS activity in endothelial cells is caused by its effect on eNOS-Hsp90 interaction, eNOS-Hsp90 association was measured by co-immunoprecipitation using eNOS antibody.

[5] = system: pulmonary artery endothelial cells; experiment: endothelial monolayer wound repair; format: cell-based, pigs; conditions: P326TAT 20 μm
Experimental: Pulmonary artery endothelial cells were incubated with ABS peptides for 3 h. Then endothelial monolayer wound repair in the absence and presence of PEG-SOD (100 units/ml) and NOC-18 (10 μm) was measured as previously reported (Su, Y., et al. (2006) FASEB J. 20, 1443-51). Endothelial monolayer wound repair distance was expressed as the width of the wound before treatment subtracted by that after treatment.

[6] = target: T1, eNOS-β-actin association; experiment: eNOS-β-actin co-immunoprecipitation in PAEC under normoxia or hyperoxia; format: cell-based, pigs
Experimental: (§1) Third- to sixth-passage cells in monolayer culture were maintained in RPMI 1640 medium containing 4% fetal bovine serum and antibiotics (10 units/ml penicillin, 100 μg/ml streptomycin, 20 μg/ml gentamicin, and 2 μg/ml Fungizone) and were used 2 or 3 days after confluence.
(§2) To reduce β-actin availability to eNOS, the β-actin mRNA was silenced using its siRNA as previously reported by us (Kondrikov, D., et al. (2006) Am. J. Physiol. Lung Cell Mol. Physiol. 290, L41-L50).

[7] = system: eNOS; experiment: eNOS catalytic activity (L-citrulline formation) in hyperoxic PAEC; format: cell-based, pigs; conditions: 95% oxygen 24 h
Experimental: as §1
(§3) The homogenates were centrifuged at 100,000 g for 60 min at 4° C., and the total membrane pellet was resuspended in buffer B (bufferAplus 2.5 mM CaCl2). The resulting suspension was used for determination of eNOS activity by monitoring the formation of L-[^3H]citrulline from L-[^3H]arginine (Su, Y., et al. (2003) Am. J. Physiol. Cell Physiol. 284, C1542-C1549). To determine NO production, thapsigargin (100 nM) was added to the medium of endothelial cells following normoxic or hyperoxic exposure. After 60 min of incubation, culture medium was collected and ethanol-precipitated to remove proteins. 50 μl of the reaction mix were loaded to the SIEVERS machine for NOx (NO2 and NO3) measurement according to standard manufacturer's instruction as previously described (Church, J E., et al. (2006) J. Biol. Chem. 281, 1477-1488). Protein contents in the cell lysates were determined by Lowry's method.
as §2

[8] = system: PAEC; experiment: NO production in hyperoxic PAEC; format: cell-based, pigs; conditions: 95% oxygen 24 h
Experimental: as §1, §3, §2

[9] = system: PAEC; experiment: peroxynitrite formation in hyperoxic PAEC (APF fluorescence); format: cell-based, pigs; conditions: 95% oxygen 24 h
Experimental: as §1, §2

[10] = system: PAEC; conditions: peptide 20 μM, 95% oxygen 24 h
Experimental: as §1

## RKKRRQRRRALGLRWYAL [P326TAT]
[1]
  amount of β-actin co-immunoprecipitated with eNOS: significantly decreased the amount of β-actin co-immunoprecipitated with eNOS
[2]
  NO production: significantly decreased NO production
[3]
  superoxide formation: much higher in P326TAT-transfected endothelial cells than control peptide TAT-transfected endothelial cells
[4]
  eNOS-Hsp90 interaction (Hsp90 co-precipitated with eNOS): did not affect eNOS-Hsp90 interaction
[5]
  endothelial monolayer wound repair: exhibited lower capacity of wound repair
[6]; 95% oxygen 24 h
  hyperoxia-induced increase in β-actin co-immunoprecipitated with eNOS: prevented hyperoxia-induced increase in eNOS-β-actin co-immunoprecipitation
[6]; peptide 20 μM
  amount of β-actin co-immunoprecipitated with eNOS: significantly decreased the amount of β-actin co-immunoprecipitated with eNOS
[7]
  hyperoxia-induced increase in eNOS activity: hyperoxic exposure did not induce an increase in eNOS activity
[8]
  hyperoxia-induced increase in NO formation: prevented hyperoxiainduced increases in NO and peroxynitrite formation
[9]
  hyperoxia-induced increase in peroxynitrite formation: prevented hyperoxiainduced increases in NO and peroxynitrite formation
[10]
  tyrosine nitration of proteins at 250, 100, 75, and 60 kDa, hyperoxia versus normoxia: comparable between normoxia and hyperoxia
